According to BindingDB's records for doi:10.1016/0960-894X(96)00081-9 (1996):

Legend:
[1] = target: T1, Alpha-1A/Alpha-1B/Alpha-1D adrenergic receptor (Rattus norvegicus, UniProt P15823+P43140+P23944); experiment: Binding affinity at Alpha-1 adrenergic receptor in rat cerebral cortex membranes by [3H]prazosin displacement.
T1 sequence (P15823 whole entry): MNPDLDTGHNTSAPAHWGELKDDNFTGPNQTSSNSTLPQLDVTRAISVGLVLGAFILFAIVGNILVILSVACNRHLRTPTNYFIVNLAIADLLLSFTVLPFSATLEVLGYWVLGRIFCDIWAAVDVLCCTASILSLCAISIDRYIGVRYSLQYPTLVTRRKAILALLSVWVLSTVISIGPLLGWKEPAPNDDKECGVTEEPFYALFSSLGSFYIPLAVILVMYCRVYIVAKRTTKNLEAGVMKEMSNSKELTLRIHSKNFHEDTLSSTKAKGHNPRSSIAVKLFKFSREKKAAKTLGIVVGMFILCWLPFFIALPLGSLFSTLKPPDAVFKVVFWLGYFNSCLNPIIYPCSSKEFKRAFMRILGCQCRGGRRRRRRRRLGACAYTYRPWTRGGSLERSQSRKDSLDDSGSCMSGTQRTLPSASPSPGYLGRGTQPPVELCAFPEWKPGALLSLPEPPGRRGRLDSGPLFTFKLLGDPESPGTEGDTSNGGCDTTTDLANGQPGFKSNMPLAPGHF
T1 sequence (P43140 whole entry): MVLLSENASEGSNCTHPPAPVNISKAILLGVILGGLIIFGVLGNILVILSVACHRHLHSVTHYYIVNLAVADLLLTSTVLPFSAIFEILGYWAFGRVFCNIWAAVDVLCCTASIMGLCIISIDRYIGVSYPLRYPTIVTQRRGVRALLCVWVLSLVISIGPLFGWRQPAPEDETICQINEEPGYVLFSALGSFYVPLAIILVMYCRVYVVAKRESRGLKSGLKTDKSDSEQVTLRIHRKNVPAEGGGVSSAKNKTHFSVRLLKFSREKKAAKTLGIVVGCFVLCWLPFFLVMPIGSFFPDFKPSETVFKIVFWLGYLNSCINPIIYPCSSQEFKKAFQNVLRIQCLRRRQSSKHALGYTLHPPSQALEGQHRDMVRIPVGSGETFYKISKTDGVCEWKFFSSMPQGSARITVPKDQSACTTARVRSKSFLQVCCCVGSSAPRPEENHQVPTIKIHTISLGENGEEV
T1 sequence (P23944 whole entry): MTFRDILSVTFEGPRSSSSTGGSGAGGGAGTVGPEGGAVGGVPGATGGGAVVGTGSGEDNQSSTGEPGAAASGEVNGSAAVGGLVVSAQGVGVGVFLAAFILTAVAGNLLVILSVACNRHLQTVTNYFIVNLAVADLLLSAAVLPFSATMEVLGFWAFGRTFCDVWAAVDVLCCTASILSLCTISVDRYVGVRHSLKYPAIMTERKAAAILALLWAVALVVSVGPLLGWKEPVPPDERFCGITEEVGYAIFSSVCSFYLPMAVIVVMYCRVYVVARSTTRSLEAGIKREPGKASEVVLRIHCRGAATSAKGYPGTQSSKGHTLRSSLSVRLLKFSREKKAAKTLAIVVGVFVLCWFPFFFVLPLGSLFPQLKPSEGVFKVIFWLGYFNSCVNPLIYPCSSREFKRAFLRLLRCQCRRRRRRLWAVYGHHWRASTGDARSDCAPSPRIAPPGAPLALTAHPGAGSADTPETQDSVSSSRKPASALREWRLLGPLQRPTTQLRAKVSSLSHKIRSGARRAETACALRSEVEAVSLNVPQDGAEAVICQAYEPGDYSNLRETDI

[2] = target: T2, 5-hydroxytryptamine receptor 1A (Rattus norvegicus, UniProt P19327); experiment: ChEBML_841
T2 sequence (P19327 whole entry): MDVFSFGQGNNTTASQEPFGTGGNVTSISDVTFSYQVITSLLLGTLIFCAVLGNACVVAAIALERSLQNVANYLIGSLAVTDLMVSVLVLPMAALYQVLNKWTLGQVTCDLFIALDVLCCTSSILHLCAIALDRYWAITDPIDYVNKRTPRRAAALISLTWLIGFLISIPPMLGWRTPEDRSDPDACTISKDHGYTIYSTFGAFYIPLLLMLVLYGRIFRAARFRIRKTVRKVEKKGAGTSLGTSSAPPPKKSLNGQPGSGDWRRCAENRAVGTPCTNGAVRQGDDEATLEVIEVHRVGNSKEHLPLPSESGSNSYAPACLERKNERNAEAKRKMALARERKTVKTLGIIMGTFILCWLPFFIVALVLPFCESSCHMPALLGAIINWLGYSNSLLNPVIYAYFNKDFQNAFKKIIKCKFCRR
Protocol: Compound was evaluated for its ability to displace [3H]8-OH-DPAT from serotonin 5-hydroxytryptamine 1A receptor in rat cerebral cortex membranes

Row | SMILES | Ki [1] | Ki [2]
1 | O=c1n(CCCCN2CCN(c3ccccc3)CC2)c(O)c2n1CCCC2 [2-[4-(4-Phenyl-piperazin-1-yl)-butyl]-tetrahydro-imidazo[1,5-a]pyridine-1,3-dione] | 19 nM | –
2 | O=c1n(CCCN2CCN(c3cccc(Cl)c3)CC2)c(O)c2n1CCCC2 [2-{3-[4-(3-Chloro-phenyl)-piperazin-1-yl]-propyl}-tetrahydro-imidazo[1,5-a]pyridine-1,3-dione] | 18 nM | 54 nM
3 | COc1ccccc1N1CCN(Cn2c(O)c3n(c2=O)CCCC3)CC1 [2-[4-(2-Methoxy-phenyl)-piperazin-1-ylmethyl]-tetrahydro-imidazo[1,5-a]pyridine-1,3-dione] | > 1000 nM | –
